Reference: patent US5846720A, “Methods of determining chemicals that modulate expression of genes associated with cardiovascular disease” (Oncogene Science, Inc., priority 1996, dated 1998)

Columns and labels:
[1] = tested on: hGH promoter; assay: hGH promoter/luciferase reporter assay (high-throughput screen I), 532 cells; format: cell-based, rat; details: Table 2, 6 h incubation; for hGH fold induction relative to solvent control: transcriptional activators; for hGH fold inhibition relative to solvent control: transcriptional inhibitors
Text: 6. a GC rat pituitary cell line, transfected with the growth hormone reporter plasmid, designated 532, deposited under ATCC Accession No. CRL 10663.

[2] = tested on: MMTV promoter; assay: MMTV promoter/luciferase reporter assay (high-throughput screen I, control for specificity), M10 cells; format: cell-based, mouse; details: Table 2, 6 h incubation; for MMTV fold induction relative to solvent control: transcriptional activators, original high-throughput assay; for MMTV fold inhibition relative to solvent control: transcriptional inhibitors
Procedure: pMluci and pSV2Neo, an antibiotic resistance plasmid (84), were co-transfected into NIH/3T3 mouse fibroblast cells using the calcium phosphate precipitation method (85) with a commercially available kit (Pharmacia, Piscataway N.J.). Two days later, cells were transferred to media containing 0.4 mg/ml G418 and were grown for an additional 10-14 days. G418-resistant clones were isolated by standard methods. Once sufficient cell numbers were obtained, clones were analyzed based on several criteria: constitutive luciferase production, induction of luciferase expression by dexamethasone ([…], Sigma, St. Louis, Mo.), satisfactory attachment to microtiter plates used in the high-throughput screen (see section G) and acceptable standard deviation in multiple luciferase expression assays (see below for assay protocol). This analysis was carried out using the luciferase assay conditions described above. Of the clones which satisfied the above criteria for the high throughput screen, one clone, M10, was selected for use.

[3] = tested on: G-CSF promoter; assay: G-CSF promoter/luciferase reporter assay (high-throughput screen I), G21 cells; details: Table 2, 6 h incubation; for GCSF fold induction relative to solvent control: transcriptional activators; for GCSF fold inhibition relative to solvent control: transcriptional inhibitors

SMILES	hGH fold induction relative to solvent control [1] [fold]	MMTV fold induction relative to solvent control [2] [fold]	GCSF fold induction relative to solvent control [3] [fold]	hGH fold inhibition relative to solvent control [1] [fold]	MMTV fold inhibition relative to solvent control [2] [fold]	GCSF fold inhibition relative to solvent control [3] [fold]
Nc1c(Cl)c(Cl)nc(C(=O)O)c1Cl [Chemical 1561]	8.05	0.48	0.23			
Brc1ccc2c3c(cccc13)CC2 [Chemical 1573]	0.34	4.30	1.49			
Nc1ncnc2c1nc(Br)n2[C@@H]1O[C@H](CO)[C@@H](O)[C@H]1O [Chemical 1583]	0.12	0.88	5.82			
Cc1ccc(P(CCP(c2ccc(C)cc2)c2ccc(C)cc2)c2ccc(C)cc2)cc1 [Chemical 1591]				5.55	0.96	0.56
CC1(C)[C@@H](C(=O)OCC(F)(F)C(F)(F)C(F)(F)C(F)(F)C(F)(F)C(F)F)CC[C@@]1(C)C(=O)OCC(F)(F)C(F)(F)C(F)(F)C(F)(F)C(F)(F)C(F)F [Chemical 1592]	0.74	1.34	3.20			
O=C(Nc1cccc(C2=NCCN2)c1)Nc1cccc(C2=NCCN2)c1 [Chemical 1598]	5.32	1.27	0.72			
O=S(=O)(O)c1ccc(-c2nnc(-c3ccnc(-c4nnc(-c5ccc(S(=O)(=O)O)cc5)c(-c5ccc(S(=O)(=O)O)cc5)n4)c3)nc2-c2ccc(S(=O)(=O)O)cc2)cc1 [Chemical 1604]				5.00	0.97	0.77
CC1(C)[C@H]2CC[C@]1(C)[C@H](O)C2 [Chemical 1635]				9.09	0.99	0.71
C(=Cc1ccccn1)c1ccccn1 [Chemical 1640]				5.00	0.59	0.79
c1ccc(-c2nccnc2-c2ccccn2)nc1 [Chemical 1641]				5.55	0.60	0.83
O=S(=O)(O)c1ccc(-c2ccnc(-c3nnc(-c4ccc(S(=O)(=O)O)cc4)c(-c4ccc(S(=O)(=O)O)cc4)n3)c2)cc1 [Chemical 1648]				7.69	1.00	0.86
COC(=O)CP(=O)(OCC(F)(F)F)OCC(F)(F)F [Chemical 1651]				3.57	0.70	0.69
O=C(O)c1cc(C(F)(F)F)ccc1C(F)(F)F [Chemical 1655]				4.76	0.81	0.54
OCC1CC2C3CC(CO)C(C3)C2C1 (stereo not drawn) [Chemical 1678]	7.08	0.89	0.36			
N#Cc1cccc(Br)c1 [Chemical 1703]				10.00	0.90	0.76
N#Cc1ccc(Br)cc1 [Chemical 1704]				4.16	0.94	0.77
O=C(c1ccccc1)c1ccc(Br)cc1 [Chemical 1705]				14.28	0.62	0.54

SMILES	hGH fold induction relative to solvent control [1] [fold]	MMTV fold induction relative to solvent control [2] [fold]	GCSF fold induction relative to solvent control [3] [fold]	hGH fold inhibition relative to solvent control [1] [fold]	MMTV fold inhibition relative to solvent control [2] [fold]	GCSF fold inhibition relative to solvent control [3] [fold]
Cc1cc(=O)oc2c(CN(CC(=O)O)CC(=O)O)c(O)ccc12 [Chemical 1712]				8.33	0.94	0.74
CC1(C)[C@H]2CC[C@]1(C)C(=O)C2 [Chemical 1720]				4.76	0.66	0.65
CCOC(=O)c1c[nH]c(=S)[nH]c1=O [Chemical 1740]	17.77	0.87	0.74			
N[C@@H](CCCCNC(=O)OCc1ccccc1)C(=O)O [Chemical 1747]	6.16	0.86	0.78			
Cc1cc(=O)oc2cc(OCC(=O)O)ccc12 [Chemical 1764]				7.14	0.82	0.55
Cc1c(C(=O)O)c(O)cc2c1C(=O)c1c(O)c([C@@H]3O[C@H](CO)[C@@H](O)[C@H](O)[C@H]3O)c(O)c(O)c1C2=O [Chemical 1770]				10.00	0.57	0.54
NCCC(=O)N[C@@H](Cc1cnc[nH]1)C(=O)O [Chemical 1771]				10.00	0.72	0.71
Cc1cc(C2(c3cc(C)c(O)c(CN(CC(=O)O)CC(=O)O)c3)OC(=O)c3ccccc32)cc(CN(CC(=O)O)CC(=O)O)c1O [Chemical 1773]				10.00	0.67	0.62
N=c1cc2oc3cc(N)ccc3nc-2c2ccccc12 [Chemical 1776]	0.15	1.36	3.50			
CN(C)C(=S)SCC#N [Chemical 1793]	0.52	1.21	9.50			
O=C(O)C1CCC1 [Chemical 1804]	9.41	0.49	1.05			
O=c1[nH]c(=O)c2nc3ccccc3nc2[nH]1 [Chemical 1890]				5.26	0.58	0.80
Nc1c2ccccc2nc2ccccc12 [Chemical 1904]	0.54	0.82	4.12			
Brc1cccc(-c2ccccc2)c1 [Chemical 1994]	0.34	0.63	3.29			
CC(C)(C)c1ccc(Br)cc1 [Chemical 2001]	0.74	1.12	3.11			
Cc1n[nH]c(C)c1Br [Chemical 2009]				0.57	0.64	3.70
Nc1c(Br)cc([N+](=O)[O-])cc1[N+](=O)[O-] [Chemical 2010]				0.63	3.57	0.80
